Measured values published in ChEMBL document CHEMBL1147590, “Synthesis and antitumor activity of s-tetrazine derivatives” (Bioorg Med Chem Lett, 2004).

How the values were obtained:
A549 [1] = assay: In vitro rate of inhibition of A-549 tumor cell growth at 10E-4 mol/L; type: functional, Homo sapiens; conditions: at 100 µM
A549 [2] = assay: In vitro rate of inhibition of A-549 tumor cell growth at 10E-5 mol/L; type: functional, Homo sapiens; conditions: at 10 µM
A549 [3] = assay: In vitro rate of inhibition of A-549 tumor cell growth at 10E-7 mol/L; type: functional, Homo sapiens; conditions: at 0.1 µM
A549 [4] = assay: In vitro rate of inhibition of A-549 tumor cell growth at 10E-8 mol/L; type: functional, Homo sapiens; conditions: at 0.01 µM
P388 [5] = assay: In vitro rate of inhibition of P388 tumor cell growth at 10E-5 mol/L; type: functional, Mus musculus; conditions: at 10 µM
P388 [6] = assay: In vitro rate of inhibition of P388 tumor cell growth at 10E-6 mol/L; type: functional, Mus musculus; conditions: at 1 µM
P388 [7] = assay: In vitro rate of inhibition of P388 tumor cell growth at 10E-7 mol/L; type: functional, Mus musculus; conditions: at 0.1 µM
P388 [8] = assay: In vitro rate of inhibition of P388 tumor cell growth at 10E-8 mol/L; type: functional, Mus musculus; conditions: at 0.01 µM
A549 [9] = assay: In vitro rate of inhibition of A-549 tumor cell growth at 10E-6 mol/L; type: functional, Homo sapiens; conditions: at 1 µM
P388 [10] = assay: In vitro rate of inhibition of P388 tumor cell growth at 10E-4 mol/L; type: functional, Mus musculus; conditions: at 100 µM

SMILES: CC1=NN(C(=O)Nc2ccccc2)C(C)=NN1C(=O)Nc1ccccc1
- Rate of inhibition (A549 [1]): 76.5%
- Rate of inhibition (A549 [2]): 77.9%
- Rate of inhibition (A549 [3]): 60.3%
- Rate of inhibition (A549 [4]): 50%
- Rate of inhibition (P388 [5]): 90.6%
- Rate of inhibition (P388 [6]): 90.6%
- Rate of inhibition (P388 [7]): 87.5%
- Rate of inhibition (P388 [8]): 81.3%
- Rate of inhibition (A549 [9]): 79.4%
- Rate of inhibition (P388 [10]): 89.1%

SMILES: CCCC1=NN(C(=O)Nc2ccccc2)C(CCC)=NN1C(=O)Nc1ccccc1
- Rate of inhibition (A549 [1]): 56.6%
- Rate of inhibition (A549 [2]): 78.3%
- Rate of inhibition (A549 [3]): 6.1%
- Rate of inhibition (A549 [4]): 2.5%
- Rate of inhibition (P388 [5]): 61.5%
- Rate of inhibition (P388 [6]): 22.8%
- Rate of inhibition (P388 [7]): 4.4%
- Rate of inhibition (P388 [8]): 4.1%
- Rate of inhibition (A549 [9]): 48.3%
- Rate of inhibition (P388 [10]): 85.4%

SMILES: CC1=NNC(C)N=N1 (stereo not given)
- Rate of inhibition (A549 [1]): 67.7%
- Rate of inhibition (A549 [2]): 4.8%
- Rate of inhibition (A549 [3]): 5.5%
- Rate of inhibition (A549 [4]): 0%
- Rate of inhibition (P388 [5]): 19.7%
- Rate of inhibition (P388 [6]): 9.2%
- Rate of inhibition (P388 [7]): 15.9%
- Rate of inhibition (P388 [8]): 0%
- Rate of inhibition (A549 [9]): 0%
- Rate of inhibition (P388 [10]): 100%

SMILES: Clc1ccccc1-c1nnc(-c2ccccc2Cl)nn1 [CLOFENTEZINE]
- Rate of inhibition (A549 [1]): 0%
- Rate of inhibition (A549 [2]): 0%
- Rate of inhibition (A549 [3]): 0%
- Rate of inhibition (A549 [4]): 0%
- Rate of inhibition (P388 [5]): 2.8%
- Rate of inhibition (P388 [6]): 5.6%
- Rate of inhibition (P388 [7]): 14.6%
- Rate of inhibition (P388 [8]): 12.6%
- Rate of inhibition (A549 [9]): 0%
- Rate of inhibition (P388 [10]): 8.2%
